Experimental data from patent US10155727B2, “Pyrazoles” (Janssen Pharmaceuticals, Inc., priority 2014, dated 2018).
Counter-ions that a name gives are not always drawn. Like-named read-outs stand apart in the source and are kept apart here.

Assays:
[1] = target: human NR1/NR2B ion channels (Homo sapiens (Human), UniProt Q05586+Q13224); assay: HNR2BC: calcium influx assay on cloned human NR1/NR2B ion channels expressed in HEK cells; format: cell-based; conditions: HEK cells with hNR1/NR2B, 100 μM glutamate + 100 μM glycine, 3 parameter plot
human NR1/NR2B ion channels, sequence (Q13224 27-1484, other chains not shown): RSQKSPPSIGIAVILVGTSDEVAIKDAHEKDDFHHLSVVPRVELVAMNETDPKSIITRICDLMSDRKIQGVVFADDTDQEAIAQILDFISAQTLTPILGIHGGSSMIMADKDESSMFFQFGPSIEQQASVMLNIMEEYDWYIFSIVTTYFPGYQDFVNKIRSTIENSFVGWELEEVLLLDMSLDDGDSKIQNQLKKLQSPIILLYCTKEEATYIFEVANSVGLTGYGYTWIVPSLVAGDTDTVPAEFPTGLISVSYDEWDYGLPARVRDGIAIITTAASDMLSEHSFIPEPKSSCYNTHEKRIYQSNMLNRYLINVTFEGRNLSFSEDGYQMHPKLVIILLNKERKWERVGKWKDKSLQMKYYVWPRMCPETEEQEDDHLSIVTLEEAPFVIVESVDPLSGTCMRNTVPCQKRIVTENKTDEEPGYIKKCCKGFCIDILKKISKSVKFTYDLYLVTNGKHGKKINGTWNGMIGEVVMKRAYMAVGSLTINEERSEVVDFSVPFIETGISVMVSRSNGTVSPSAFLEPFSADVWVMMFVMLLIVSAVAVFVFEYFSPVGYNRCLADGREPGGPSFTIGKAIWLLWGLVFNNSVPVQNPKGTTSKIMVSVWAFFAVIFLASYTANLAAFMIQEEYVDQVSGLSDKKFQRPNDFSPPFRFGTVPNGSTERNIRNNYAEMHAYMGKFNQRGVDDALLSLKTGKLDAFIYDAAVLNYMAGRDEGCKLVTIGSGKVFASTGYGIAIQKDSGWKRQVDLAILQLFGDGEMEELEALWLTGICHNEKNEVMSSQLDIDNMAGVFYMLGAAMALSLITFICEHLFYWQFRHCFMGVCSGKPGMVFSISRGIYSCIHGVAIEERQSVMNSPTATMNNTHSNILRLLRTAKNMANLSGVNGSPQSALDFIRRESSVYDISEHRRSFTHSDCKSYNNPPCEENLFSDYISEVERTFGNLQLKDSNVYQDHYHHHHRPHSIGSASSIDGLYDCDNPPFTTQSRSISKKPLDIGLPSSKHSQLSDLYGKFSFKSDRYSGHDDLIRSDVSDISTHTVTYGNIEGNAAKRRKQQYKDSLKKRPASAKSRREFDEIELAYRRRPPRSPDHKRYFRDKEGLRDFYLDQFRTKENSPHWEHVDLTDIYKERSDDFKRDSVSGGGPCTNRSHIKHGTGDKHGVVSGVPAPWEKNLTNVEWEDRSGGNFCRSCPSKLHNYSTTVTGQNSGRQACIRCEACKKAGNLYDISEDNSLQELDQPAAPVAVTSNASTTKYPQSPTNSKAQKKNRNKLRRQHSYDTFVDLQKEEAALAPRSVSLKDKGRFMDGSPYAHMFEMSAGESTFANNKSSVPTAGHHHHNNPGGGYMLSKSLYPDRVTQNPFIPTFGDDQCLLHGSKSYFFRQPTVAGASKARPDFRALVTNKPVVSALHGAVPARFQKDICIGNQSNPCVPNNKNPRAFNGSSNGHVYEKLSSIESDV
Description: HNR2BC: Effects of Test Articles on Cloned Human NR1/NR2B Ion Channels Expressed in Mammalian Cells
The ability of test compounds to act as an antagonist of NR1/NR2B was evaluated with a calcium influx assay (Calcium 5 Assay Kit, Molecular Devices).
For the antagonist assessment, NR1/NR2B was activated with the positive control agonist (Mg^2+-free HBPS+100 μM glutamic acid+100 μM glycine).
A HEK cell line, stable transfected with hNR1/NR2B was used. This tetracycline inducible cell line is transfected with GRIN1 (GeneBank accession number NM_007327.2) and GRIN2B (GeneBank accession number NM_000834.3.). The cells were cultured in cell culture flasks with DMEM/F12 supplemented with 10% FCS, 1% PenStrep and a selection of additional antibiotics.
Forty-Eight (48) hours before the assay the cells were plated into 96-well black well, flat clear bottom microtiter plates at a density of 50000 cells/well. Twenty-Four (24) hours later the receptor expression was induced by the addition of 1 μg/ml tetracycline in the presence of 2 mM ketamine and 200 μM 7-CKA. After 24 h of receptor induction the plates were used for the assay.
The medium was removed and the cells were loaded with 200 μl loading buffer (Molecular Devices) in Mg2+-free HBPS containing 100 μM 7-CKA at 37° C. for one (1) hour.
The test compounds were then solubilized in 100% DMSO and diluted to yield eight (8) different concentrations in 100% DMSO. A 96 well drug plate was prepared by diluting with water and glycine/glutamate to a 5-fold of final test concentration. Fluorescence intensity of the cells in the plate was measured in a FlexStation using an excitation wavelength of 485 nm and an emission wavelength of 525 nm. Twenty (20) seconds after starting the recordings the compounds together with the agonists glycine (100 μM) and glutamate (100 μM) were added into the wells and the fluorescence measured for ninety (90) seconds in summary.
The IC50 values provided in the paragraph below were determined using a 3 parameter plot.

[2] = target: hERG receptor (Homo sapiens (Human), UniProt Q12809); assay: HERGBD: inhibition of specific [3H]-Dofetilide binding to the hERG receptor
hERG receptor, sequence (Q12809 whole entry): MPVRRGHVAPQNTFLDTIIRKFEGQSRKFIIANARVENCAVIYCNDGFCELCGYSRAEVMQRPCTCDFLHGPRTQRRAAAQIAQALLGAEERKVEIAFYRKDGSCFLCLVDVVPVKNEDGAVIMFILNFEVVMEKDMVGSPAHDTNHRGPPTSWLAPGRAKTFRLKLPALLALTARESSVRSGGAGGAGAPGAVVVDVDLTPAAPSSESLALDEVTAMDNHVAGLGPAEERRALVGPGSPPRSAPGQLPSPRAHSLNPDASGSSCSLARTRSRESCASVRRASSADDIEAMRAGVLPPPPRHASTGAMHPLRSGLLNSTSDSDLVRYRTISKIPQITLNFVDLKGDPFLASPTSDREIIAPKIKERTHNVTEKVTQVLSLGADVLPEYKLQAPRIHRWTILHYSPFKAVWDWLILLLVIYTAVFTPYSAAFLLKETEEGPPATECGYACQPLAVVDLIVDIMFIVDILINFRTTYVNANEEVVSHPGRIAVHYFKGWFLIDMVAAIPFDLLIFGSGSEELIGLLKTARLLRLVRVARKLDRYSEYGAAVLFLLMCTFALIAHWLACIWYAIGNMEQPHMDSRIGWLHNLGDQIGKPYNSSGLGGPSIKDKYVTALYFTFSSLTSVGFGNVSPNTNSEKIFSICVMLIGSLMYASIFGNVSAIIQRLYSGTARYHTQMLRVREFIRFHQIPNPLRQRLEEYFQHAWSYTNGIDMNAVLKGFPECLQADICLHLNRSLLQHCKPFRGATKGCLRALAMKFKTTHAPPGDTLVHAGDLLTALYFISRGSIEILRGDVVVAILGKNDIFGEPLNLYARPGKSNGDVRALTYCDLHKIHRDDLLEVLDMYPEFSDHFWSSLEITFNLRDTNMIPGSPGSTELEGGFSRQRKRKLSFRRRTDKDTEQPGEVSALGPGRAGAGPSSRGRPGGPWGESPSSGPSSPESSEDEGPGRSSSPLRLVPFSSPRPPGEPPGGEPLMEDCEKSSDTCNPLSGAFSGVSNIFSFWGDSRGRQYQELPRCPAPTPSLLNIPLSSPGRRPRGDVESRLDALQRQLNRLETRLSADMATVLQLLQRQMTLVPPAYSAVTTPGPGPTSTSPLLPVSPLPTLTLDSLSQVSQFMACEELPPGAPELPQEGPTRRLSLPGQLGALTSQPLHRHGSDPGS
Description: Inhibition of Specific Binding to the hERG—Receptor (HERGBD)
A HEK cell line with stable transfected human ERG receptor was used for the assay. The cells were grown adherently and maintained in DULBECCOS' MEM medium with 10% FBS, 1% non-essential amino acids, 1% Penicillin/Streptomycin and 400 μg/ml G418 (Calbiochem).
For binding assays and membrane preparations the cell culture medium was removed, cells were washed with PBS. Crude membranes for radioligand binding experiments were prepared by scraping the cells off the dishes in ice cold 20 mM HEPES/0.1 mM KCl/pH 7.2. The cell suspension was homogenized on ice (Ultra turrax, 3×20 sec.) and the homogenate was spun for 10 min (1° C., 1000 g, OPTIMA, SW28, 2800 U/min). The supernatant was than centrifuged for 40 min at 100000 g (1° C., OPTIMA, SW28, 23000 U/min). The membrane pellet was re-suspended in 20 mM HEPES/0.1 mM KCl pH 7.2, frozen and stored at −80° C.
After thawing on the day of the assay, the membrane suspension was diluted further with 20 mM HEPES/0.1 mM KCl/pH 7.2.
The incubation mixture of 200 μl contained 1.5 nmol/l 3H-Dofetilide, optimized amount of membrane preparation, 20 mM HEPES/0.1 mM KCl/(pH 7.2) and inhibitor in 1% DMSO. Nonspecific binding was estimated in the presence of […] Dofetilide. The samples were incubated for 90 min. at RT.
Binding was terminated by filtration of the incubated membrane preparations using Filtermat B (Pharmacia, Uppsala Sweden) and a Micro Cell Harvester (Skatron, Lier, Norway). The Filtermat B had been presoaked with 1% polyethylen imine and carefully washed with 0.05 M Tris/HCl-buffer pH=7.7 after the filtration to separate free and bound radioactivity. The filters were counted in a scintillation counter (Betaplate 1205, Berthold, Wildbad, Germany) in order to determine the specific binding of [^3H]-Dofetilide.
The optimal amount of membrane preparation in the assay was determined and optimized for each membrane preparation separately in front of using the membranes in compound testing.
For pipetting of the incubation mixture we routinely use the robot Biomek2000 (Fa. Beckman).

[3] = target: rat NR1/NR2B receptor (Rattus norvegicus (Rat), UniProt P35439+Q00960); assay: NR2B binding assay: inhibition of specific [3H]-Ifenprodil binding to the rat NR1/NR2B receptor; conditions: for IC50 / inhibition at 1 µM: [3H]-Ifenprodil binding, rat brain membranes; for inhibition at 1 µM: 1 μM test compound, read-out: % INH @ 1 μM
rat NR1/NR2B receptor, sequence (Q00960 27-1482, other chains not shown): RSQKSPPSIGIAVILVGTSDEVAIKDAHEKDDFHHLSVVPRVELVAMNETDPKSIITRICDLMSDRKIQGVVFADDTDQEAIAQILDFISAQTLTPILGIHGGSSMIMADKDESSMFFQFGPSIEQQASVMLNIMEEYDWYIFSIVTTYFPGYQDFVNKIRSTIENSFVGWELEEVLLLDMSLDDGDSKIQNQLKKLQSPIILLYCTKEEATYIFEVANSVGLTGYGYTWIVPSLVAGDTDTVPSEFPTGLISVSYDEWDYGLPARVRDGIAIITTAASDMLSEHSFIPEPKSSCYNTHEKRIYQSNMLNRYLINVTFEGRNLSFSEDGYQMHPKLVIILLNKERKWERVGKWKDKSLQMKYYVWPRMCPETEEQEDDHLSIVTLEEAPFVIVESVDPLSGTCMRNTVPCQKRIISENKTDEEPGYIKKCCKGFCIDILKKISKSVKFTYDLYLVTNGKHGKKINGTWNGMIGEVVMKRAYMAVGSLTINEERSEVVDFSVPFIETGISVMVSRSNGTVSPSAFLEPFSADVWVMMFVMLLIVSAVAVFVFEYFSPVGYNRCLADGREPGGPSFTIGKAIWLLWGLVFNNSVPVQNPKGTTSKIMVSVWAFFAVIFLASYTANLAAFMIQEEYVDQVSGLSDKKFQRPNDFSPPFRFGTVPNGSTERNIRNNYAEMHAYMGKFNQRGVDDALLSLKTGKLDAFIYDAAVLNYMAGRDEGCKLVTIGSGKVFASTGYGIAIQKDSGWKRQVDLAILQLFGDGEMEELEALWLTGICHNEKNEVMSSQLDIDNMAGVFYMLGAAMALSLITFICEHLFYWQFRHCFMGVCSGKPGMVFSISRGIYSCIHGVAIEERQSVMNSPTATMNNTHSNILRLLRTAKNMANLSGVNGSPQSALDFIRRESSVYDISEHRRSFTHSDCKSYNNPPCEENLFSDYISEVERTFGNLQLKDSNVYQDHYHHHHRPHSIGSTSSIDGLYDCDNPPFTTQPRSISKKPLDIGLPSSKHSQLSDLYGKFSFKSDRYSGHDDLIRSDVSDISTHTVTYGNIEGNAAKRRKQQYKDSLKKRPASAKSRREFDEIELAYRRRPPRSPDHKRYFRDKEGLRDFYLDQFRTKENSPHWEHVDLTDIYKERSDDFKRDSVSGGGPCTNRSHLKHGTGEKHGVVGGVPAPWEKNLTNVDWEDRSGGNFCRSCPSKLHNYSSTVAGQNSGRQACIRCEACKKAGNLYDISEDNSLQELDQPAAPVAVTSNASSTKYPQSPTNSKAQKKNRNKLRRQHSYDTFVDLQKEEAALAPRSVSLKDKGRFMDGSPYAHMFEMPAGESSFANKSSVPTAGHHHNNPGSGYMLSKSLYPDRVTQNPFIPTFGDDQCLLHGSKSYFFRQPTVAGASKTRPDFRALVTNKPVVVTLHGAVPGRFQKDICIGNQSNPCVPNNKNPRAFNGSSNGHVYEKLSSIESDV
Description: Biological Assays Inhibition of Specific Binding to the Rat NR1/NR2B Receptor
Male Wistar rats (180 to 200 g) were killed by suffocation in a CO2 chamber for two minutes. Whole brains without cerebellum were removed and dissected on ice, placed into closed vials and stored at −70° C.
Membrane fractions were prepared and tested using standard techniques. At the time of the assay, 1 g of the brains was placed into 25 ml of 50 mM Tris/10 mM EDTA buffer, pH 7.1, (25 vol. per g of original tissue) and homogenized for 30 sec at 20000 rpm with an Ultraturrax T25 (Jahnke & Kunkel, IKA-Labortechnik, Staufen, Germany).
The supernatant was discarded and the pellet was homogenized on ice for 30 sec at 20000 rpm with an Ultraturrax and again centrifuged at 48000 g for 30 minutes at 4° C. The resultant pellet was resuspended in 25 ml of 50 mM Tris/10 mM EDTA buffer, homogenized for 30 sec with an Ultraturrax, aliquoted, frozen at −70° C. and stored until use.
After thawing on the day of the assay, a 5 ml membrane aliquot was centrifuged at 48000 g for 30 min at 4° C. The pellet was resuspended in 5 ml of 5 mM Tris/1 mM EDTA buffer, pH 7.4, homogenized for 30 sec at 20000 rpm with an Ultraturrax and centrifuged at 48000 g for 30 min at 4° C. This was repeated twice. The final pellet was homogenized in 5 ml of 5 mM Tris/1 mM EDTA buffer at 4° C. with an Ultraturrax and used for the Ifenprodil-binding assay as described in the following.
Nonspecific binding was estimated in the presence of […] CP101.606. The samples were incubated for 60 min. at 4° C.
The incubation was terminated by filtration of the membrane preparations using Filtermat B (Pharmacia, Uppsala Sweden) and a Micro Cell Harvester (Skatron, Lier, Norway). The Filtermat B had been presoaked with 1% polyethylene imine and carefully washed with 50 mM Tris/HCl-buffer pH 7.7 after the filtration to separate free and bound radioactivity.
The optimal amount of membrane preparation in the assay was determined and optimized for each membrane preparation separately before the test.
For pipetting of the incubation mixture the robot Biomek2000 (Fa. Beckman) was used.
For determination of IC50 values the Hill-plot, 2-parameter-model was used.

[4] = [3H]-Dofetilide binding, membranes of HEK cells with human ERG receptor, read-out: IC50

SMILES	IC50 [1]	IC50 [2]	IC50 [3]	IC50 [2, 4]	inhibition at 1 µM [3]	inhibition at 10 µM ([3]; read-out: % INH @ 10 μM)
Cn1cc(Cn2cc(-c3ccc(Cl)c(OC(F)F)c3)cn2)cn1 [Example 4, 4-[4-Chloro-3-(difluoromethoxy)phenyl]-1-[(1-methylpyrazol-4-yl)methyl]pyrazole]	1750 nM	–	–	–	–	–
FC(F)Oc1cc(-c2cnn(Cc3cc[nH]n3)c2)ccc1Cl [Example 6]	230 nM	–	–	–	–	–
FC(F)Oc1cc(-c2cnn(Cc3cn[nH]c3)c2)ccc1Cl [Example 7, 4-[4-Chloro-3-(difluoromethoxy)phenyl]-1-(1H-pyrazol-4-ylmethyl)pyrazole]	350 nM	52.6 µM	8.23 nM	–	–	–
CCc1cc(Cn2cc(-c3ccc(Cl)c(OC(F)F)c3)cn2)n[nH]1 [Example 14, 3-[[4-[4-Chloro-3-(difluoromethoxy)phenyl]pyrazol-1-yl]methyl]-5-ethyl-1H-pyrazole]	> 10000 nM	–	76.2 nM	16.1 µM	–	–
Cc1[nH]ncc1Cn1cc(-c2ccc(Cl)c(OC(F)F)c2)cn1 [Example 16, 4-[4-Chloro-3-(difluoromethoxy)phenyl]-1-[(5-methyl-1H-pyrazol-4-yl)methyl]pyrazole]	2150 nM	64.7 µM	41.1 nM	–	–	–
CCc1[nH]ncc1Cn1cc(-c2ccc(Cl)c(OC(F)F)c2)cn1 [Example 17, 4-[4-Chloro-3-(difluoromethoxy)phenyl]-1-[(5-ethyl-1H-pyrazol-4-yl)methyl]pyrazole]	3700 nM	–	–	–	–	–
CCc1[nH]ncc1Cn1cc(-c2ccc(F)c(OC(F)F)c2)cn1 [Example 20, 4-[3-(difluoromethoxy)-4-fluoro-phenyl]-1-[(5-ethyl-1H-pyrazol-4-yl)methyl]pyrazole Tartrate]	5970 nM	–	–	–	–	–
FC(F)c1cc(-c2cnn(Cc3cc[nH]n3)c2)ccc1Cl [Example 26, 4-[4-Chloro-3-(difluoromethyl)phenyl]-1-(1H-pyrazol-3-ylmethyl)pyrazole]	890 nM	–	–	–	–	–
Cn1ccc(Cn2cc(-c3ccc(F)c(C(F)F)c3)cn2)n1 [Example 31, 3-[[4-[3-(difluoromethyl)-4-fluoro-phenyl]pyrazol-1-yl]methyl]-1-methyl-pyrazole Succinate]	7770 nM	19.7 µM	264 nM	–	–	–
Fc1ccc(-c2cnn(Cc3cc[nH]n3)c2)cc1C(F)F [Example 35, 4-[3-(Difluoromethyl)-4-fluoro-phenyl]-1-(1H-pyrazol-3-ylmethyl)pyrazole]	690 nM	22.6 µM	17.6 nM	–	–	–
Cc1cc(Cn2cc(-c3ccc(F)c(C(F)F)c3)cn2)[nH]n1 [Example 39, 4-[3-(Difluoromethyl)-4-fluoro-phenyl]-1-[(3-methyl-1H-pyrazol-5-yl)methyl]pyrazole]	2400 nM	90.2 µM	102 nM	–	–	–
CCc1cc(Cn2cc(-c3ccc(F)c(C(F)F)c3)cn2)n[nH]1 [Example 40, 3-[[4-[3-(Difluoromethyl)-4-fluoro-phenyl]pyrazol-1-yl]methyl]-5-ethyl-1H-pyrazole]	3300 nM	23.3 µM	47 nM	–	–	–
Cn1nccc1-n1cc(-c2ccc(F)c(Cl)c2)cn1 [Example 101, 4-(3-chloro-4-fluorophenyl)-2′-methyl-2′H-1,3′-bipyrazole]	–	118 µM	5600 nM	–	–	–
Clc1ccc(-c2cnn(Cc3cn4ccccc4n3)c2)cc1 [Example 102, 2-((4-(4-chlorophenyl)-1H-pyrazol-1-yl)methyl)imidazo[1,2-a]pyridine]	–	10.2 µM	–	–	23.3%	–
Fc1ccc(-c2cnn(Cc3cc(Cn4ccc(-c5ccc(F)c(C(F)F)c5)n4)n[nH]3)c2)cc1C(F)F [Example 103, 3-(3-(difluoromethyl)-4-fluorophenyl)-1-((5-((4-(3-(difluoromethyl)-4-fluorophenyl)-1H-pyrazol-1-yl)methyl)-1H-pyrazol-3-yl)methyl)-1H-pyrazole]	–	> 10 µM	–	–	15.5%	–
Cn1ccc(Cn2cc(-c3ccccn3)cn2)n1 [Example 104, 2-(1-((1-methyl-1H-pyrazol-3-yl)methyl)-1H-pyrazol-4-yl)pyridine Succinate]	–	–	–	> 100 µM	20.9%	-0.6%
